Measured values taken from US20230139445A1, “BACTERIAL CELLS WITH IMPROVED TOLERANCE TO DIACIDS” (priority 2016, published 2023).
Where two headings read alike, the source gives them in different places.

Experiments:
[1] = test system: Escherichia coli K-12 MG1655; test: Screening for tolerance in wild-type cells: growth in varying concentrations of neutralized diacid, Biolector; assay type: cell-based; details: for tlag (lag time), mean / μ (growth rate), mean: neutralized with sodium hydroxide
Protocol: Escherichia coli K-12 MG1655 was grown overnight in M9 minimal medium+1% glucose and subcultured the following morning to an initial OD600 of 0.05 in M9+1% glucose. Cells were grown to mid-exponential phase (OD600 0.7-1.0) and were back-diluted with fresh medium to an OD600 of 0.7. The diluted cells were used to inoculate M9+1% glucose containing varying concentrations of glutaric acid or adipic acid which were neutralized to pH 7.0 with sodium hydroxide, and growth was measured in FlowerPlates in a Biolector microbioreactor system (m2p-labs) at 37° C. with 1000 rpm shaking. The culture volume in each well was 1.4 mL.

[2] = test system: Escherichia coli K-12 MG1655 and evolved isolates; assay type: cell-based; details: 38 g/L sebacic acid
Protocol: Five colonies from wild-type K-12 MG1655 and 10 individual colonies deriving from each population were inoculated into 300 μL M9+1% glucose in 96 well deepwell plates and incubated in a 300 rpm plate shaker at 37° C. The next day, cells were diluted 10× in M9+1% glucose and 30 μL was transferred into clear-bottomed 96 well half-deepwell plates (with rectangular wells) containing M9+1% glucose and M9+1% glucose+52.78 g/L glutaric acid or 55.56 g/L adipic acid, such that the final concentration of glutaric acid or adipic acid was 47.5 g/L or 50 g/L, respectively. In addition, cryogenic glycerol stocks of the overnight culture were saved in a 96 well plate format. Half deepwell plates were incubated at 37° C. with 225 rpm shaking in a Growth Profiler (Enzyscreen), with optical scans of the plates taken at 15 minute intervals. Green pixel values integrated over a 1 mm diameter circular area in each well were converted to OD600 values using a previously determined calibration between OD600 and green pixel values.
Additionally, each evolved isolate was tested for cross-tolerance toward other dicarboxylic acids of interest. […] All diacids tested were either the neutral sodium salts, or the free diacid was neutralized with sodium hydroxide to pH 7.0 for testing.

Compound: O=C(O)CCCCCCCCC(=O)O [sebacic acid]
- tlag (lag time), mean ([1]; 10 g/L): 1.9 h
- μ (growth rate), mean ([1]; 10 g/L, M9+1% glucose, 37° C): 0.707 h⁻¹
- tlag (lag time), mean ([1]; 20 g/L): 2.7 h
- μ (growth rate), mean ([1]; 20 g/L): 0.578 h⁻¹
- tlag (lag time), mean ([1]; 25 g/L): 3.3 h
- μ (growth rate), mean ([1]; 25 g/L): 0.413 h⁻¹
- tlag (lag time), mean ([1]; 30 g/L): 5.7 h
- μ (growth rate), mean ([1]; 30 g/L): 0.386 h⁻¹
- tlag (lag time), mean ([1]; 35 g/L): 10.8 h
- μ (growth rate), mean ([1]; 35 g/L): 0.306 h⁻¹
- tlag (lag time), mean ([1]; 40 g/L): 22.5 h
- μ (growth rate), mean ([1]; 40 g/L): 0.222 h⁻¹
- tlag (lag time), mean ([1]; 45 g/L): 50.6 h
- μ (growth rate), mean ([1]; 45 g/L): 0.051 h⁻¹
- growth of K-12 MG1655 ([1]; above 40 g/L concentration): nearly no growth detected
- growth rate μ (mean) ([2]; strain ADIP1-1): 0.244 h⁻¹
- lag time tlag (mean) ([2]; strain ADIP1-1): 21.6 h
- growth rate μ (mean) ([2]; strain ADIP1-9): 0.248 h⁻¹
- lag time tlag (mean) ([2]; strain ADIP1-9): 17.8 h
- growth rate μ (mean) ([2]; strain ADIP2-5): 0.315 h⁻¹
- lag time tlag (mean) ([2]; strain ADIP2-5): 13.5 h
- growth rate μ (mean) ([2]; strain ADIP2-6): 0.319 h⁻¹
- lag time tlag (mean) ([2]; strain ADIP2-6): 12.9 h
- growth rate μ (mean) ([2]; strain ADIP2-10): 0.290 h⁻¹
- lag time tlag (mean) ([2]; strain ADIP2-10): 13.4 h
- growth rate μ (mean) ([2]; strain ADIP3-2): 0.254 h⁻¹
- lag time tlag (mean) ([2]; strain ADIP3-2): 17.6 h
- growth rate μ (mean) ([2]; strain ADIP3-4): 0.262 h⁻¹
- lag time tlag (mean) ([2]; strain ADIP3-4): 17.1 h
- growth rate μ (mean) ([2]; strain ADIP3-8): 0.253 h⁻¹
- lag time tlag (mean) ([2]; strain ADIP3-8): 19.8 h
- growth rate μ (mean) ([2]; strain ADIP4-1): 0.308 h⁻¹
- lag time tlag (mean) ([2]; strain ADIP4-1): 13.1 h
- growth rate μ (mean) ([2]; strain ADIP4-8): 0.289 h⁻¹
- lag time tlag (mean) ([2]; strain ADIP4-8): 12.8 h
- growth rate μ (mean) ([2]; strain ADIP5-2): 0.288 h⁻¹
- lag time tlag (mean) ([2]; strain ADIP5-2): 15.3 h
- growth rate μ (mean) ([2]; strain ADIP5-6): 0.273 h⁻¹
- lag time tlag (mean) ([2]; strain ADIP5-6): 20.7 h
- growth rate μ (mean) ([2]; strain ADIP6-3): 0.268 h⁻¹
- lag time tlag (mean) ([2]; strain ADIP6-3): 17.9 h
- growth rate μ (mean) ([2]; strain ADIP6-9): 0.181 h⁻¹
- lag time tlag (mean) ([2]; strain ADIP6-9): 23.1 h
- growth rate μ (mean) ([2]; strain ADIP6-10): 0.267 h⁻¹
- lag time tlag (mean) ([2]; strain ADIP6-10): 15.3 h
- growth rate μ (mean) ([2]; strain ADIP7-2): 0.356 h⁻¹
- lag time tlag (mean) ([2]; strain ADIP7-2): 11.1 h
- growth rate μ (mean) ([2]; strain ADIP7-5): 0.353 h⁻¹
- lag time tlag (mean) ([2]; strain ADIP7-5): 12.0 h
- growth rate μ (mean) ([2]; strain ADIP8-3): 0.171 h⁻¹
- lag time tlag (mean) ([2]; strain ADIP8-3): 28.9 h
- growth rate μ (mean) ([2]; strain ADIP8-7): 0.157 h⁻¹
- lag time tlag (mean) ([2]; strain ADIP8-7): 30.9 h
- growth rate μ (mean) ([2]; strain ADIP8-10): 0.165 h⁻¹
- lag time tlag (mean) ([2]; strain ADIP8-10): 30.0 h
- growth rate μ (mean) ([2]; strain GLUT1-3): 0.074 h⁻¹
- lag time tlag (mean) ([2]; strain GLUT1-3): 34.9 h
- growth rate μ (mean) ([2]; strain GLUT1-9): 0.043 h⁻¹
- lag time tlag (mean) ([2]; strain GLUT1-9): 44.7 h
- growth rate μ (mean) ([2]; strain GLUT1-10): 0.278 h⁻¹
- lag time tlag (mean) ([2]; strain GLUT1-10): 20.6 h
- growth rate μ (mean) ([2]; strain GLUT2-1): 0.153 h⁻¹
- lag time tlag (mean) ([2]; strain GLUT2-1): 21.7 h
- growth rate μ (mean) ([2]; strain GLUT2-9): 0.282 h⁻¹
- lag time tlag (mean) ([2]; strain GLUT2-9): 12.5 h
- growth rate μ (mean) ([2]; strain GLUT2-10): 0.093 h⁻¹
- lag time tlag (mean) ([2]; strain GLUT2-10): 29.8 h
- growth rate μ (mean) ([2]; strain GLUT3-5): 0.106 h⁻¹
- lag time tlag (mean) ([2]; strain GLUT3-5): 20.0 h
- growth rate μ (mean) ([2]; strain GLUT3-7): 0.068 h⁻¹
- lag time tlag (mean) ([2]; strain GLUT3-7): 6.4 h
- growth rate μ (mean) ([2]; strain GLUT3-9): 0.158 h⁻¹
- lag time tlag (mean) ([2]; strain GLUT3-9): 18.9 h
- growth rate μ (mean) ([2]; strain GLUT4-1): 0.266 h⁻¹
- lag time tlag (mean) ([2]; strain GLUT4-1): 32.9 h
- growth rate μ (mean) ([2]; strain GLUT4-4): 0.265 h⁻¹
- lag time tlag (mean) ([2]; strain GLUT4-4): 34.2 h
- growth rate μ (mean) ([2]; strain GLUT4-10): 0.113 h⁻¹
- lag time tlag (mean) ([2]; strain GLUT4-10): 20.1 h
- growth rate μ (mean) ([2]; strain GLUT5-4): 0.183 h⁻¹
- lag time tlag (mean) ([2]; strain GLUT5-4): 37.7 h
- growth rate μ (mean) ([2]; strain GLUT5-5): 0.117 h⁻¹
- lag time tlag (mean) ([2]; strain GLUT5-5): 54.9 h
- growth rate μ (mean) ([2]; strain GLUT5-9): 0.143 h⁻¹
- lag time tlag (mean) ([2]; strain GLUT5-9): 58.2 h
- growth rate μ (mean) ([2]; strain GLUT6-4): 0.085 h⁻¹
- lag time tlag (mean) ([2]; strain GLUT6-4): 26.4 h
- growth rate μ (mean) ([2]; strain GLUT6-5): 0.123 h⁻¹
- lag time tlag (mean) ([2]; strain GLUT6-5): 21.6 h
- growth rate μ (mean) ([2]; strain GLUT6-10): 0.132 h⁻¹
- lag time tlag (mean) ([2]; strain GLUT6-10): 26.2 h
- growth rate μ (mean) ([2]; strain GLUT7-2): 0.173 h⁻¹
- lag time tlag (mean) ([2]; strain GLUT7-2): 17.5 h
- growth rate μ (mean) ([2]; strain GLUT7-6): 0.141 h⁻¹
- lag time tlag (mean) ([2]; strain GLUT7-6): 18.9 h
- growth rate μ (mean) ([2]; strain GLUT7-7): 0.112 h⁻¹
- lag time tlag (mean) ([2]; strain GLUT7-7): 20.0 h
- growth rate μ (mean) ([2]; strain GLUT8-5): 0.300 h⁻¹
- lag time tlag (mean) ([2]; strain GLUT8-5): 21.4 h
- growth rate μ (mean) ([2]; strain GLUT8-6): 0.464 h⁻¹
- lag time tlag (mean) ([2]; strain GLUT8-6): 13.7 h
- growth rate μ (mean) ([2]; strain GLUT8-9): 0.471 h⁻¹
- lag time tlag (mean) ([2]; strain GLUT8-9): 14.5 h
- growth rate μ (mean) ([2]; strain MG1655 (Table 28)): 0.167 h⁻¹
- lag time tlag (mean) ([2]; strain MG1655 (Table 28)): 26.9 h
- growth rate μ (mean) ([2]; strain MG1655 (Table 29)): 0.135 h⁻¹
- lag time tlag (mean) ([2]; strain MG1655 (Table 29)): 28.2 h
